The source of these data is patent US9000179B2, “Inhibitors of proliferation and activation of signal transducer and activator of transcription (STATs)” (Board of Regents, The University of Texas System, priority 2008, dated 2015).

Holding throughout (type): cell-based
One assay deals with STAT3. Briefly: Western blot, inhibition of STAT3 phosphorylation in Colo357FG tumor cell line. Particulars: FIG. 1. The protocol: (§1) Using phospho-tyrosine STAT3 (Y705), phospho-tyrosine Jak2 (Y1007/1008), total STAT3, total Jak2, Bcl-xL, actin (Cell Signaling Technology, Danvers, Mass.), and survivin (R&D Systems, Minneapolis, Minn.) antibodies, western blots were performed using the following methods. Briefly, (1) Samples were prepared from cells that were homogenized in a buffer protecting the protein of interest from degradation; (2) The sample was then separated using SDS-PAGE (10-15 μg protein/well) and then transferred to a membrane for detection; and (3) The membrane was incubated with a generic protein (milk proteins) to bind to any remaining sites on the membrane. A primary antibody was then added to the solution which is able to bind to its specific protein; (4) A secondary antibody-enzyme conjugate, which recognizes the primary antibody was then added to find locations where the primary antibody has bound.

Assay [1] concerns Colo357FG pancreatic cancer cell line. The assay is described as follows: Antiproliferative activity, MTT cell viability. Particulars: COLO 357/FG. The protocol:
The antiproliferative activity of the Compound of Example 1 and Example 7 have been shown in a Colo357FG pancreatic cancer cell line as follows:
(§2) A variety of cell types were seeded at a density of 50,000 cells/100 μl per well onto 96-well plates and cultured for 24-48 h in DMEM medium until they reached confluency. At confluency, 25 μl of fresh media containing WP1220 at various concentrations (0 to 100 μM) was added to the wells and incubated for 72 h at 37° C. The complex was removed, 100 μl of fresh medium was added and the cells were incubated overnight. Medium was removed and fresh medium (100 μl) was added to each well along with (20 μl) MTT solution (5 mg/ml in PBS) before incubating the cells for a further 4 h at 37° C. The reaction product was solubilised with sodium dodecyl sulfate (100 μl, 10%, w/v) in 0.01 N HCl overnight before quantifying the product using a microplate reader at 590 nm and comparing with control cells. The experiment was carried out in triplicate (n=3).

In assay [2] the test system is SCOVE3 ovarian cancer cell. The assay is described as follows: SCOVE3 ovarian cancer cell growth (MTT). The settings on record: SCOVE3, FIG. 3. The protocol: as §2
Another assay relates to U87 brain tumor. Briefly: Cell survival of U87 brain tumor (MTT). The settings on record: U87, FIG. 2. The protocol:
as §2

For the next assay, the system named is STAT-3. Briefly: Western blot, STAT-3 phosphorylation in D54 brain tumor cell lines. The settings on record: FIG. 4. The protocol: as §1
Background: A western blot detects proteins with antibodies after separation by electrophoresis.

Structures are written as SMILES.

What is called IC50 is the midpoint of a concentration-inhibition curve.

With `C[C@H](NC(=O)/C(C#N)=C/C=C/c1cccc(Br)n1)c1ccccc1` [Example 1, (2E,4E)-5-(6-bromopyridin-2-yl)-2-cyano-N-[(1S)-1-phenylethyl]penta-2,4-dienamide], the “inhibition of STAT3 phosphorylation” value with STAT3 is on record as “inhibition of STAT3 phosphorylation”. The IC50 in assay [1] is 3.2 µM.
Consider `C[C@H](NC(=O)/C(C#N)=C/C=C/c1cccc(Cl)n1)c1ccccc1` [Example 2, (2E,4E)-5-(6-chloropyridin-2-yl)-2-cyano-N-[(1S)-1-phenylethyl]penta-2,4-dienamide], for which the “inhibition of SCOVE3 ovarian cancer cell growth” value in assay [2] is listed as “inhibition of the SCOVE3 ovarian cancer cell growth”. The “cell survival of the U87 brain tumor” value with U87 brain tumor was “lack of cell survival”.
The corresponding values for `N#C/C(=C\C=C\c1cccc(Br)n1)C(=O)NCc1ccccc1` [Example 4, (2E,4E)-N-benzyl-5-(6-bromopyridin-2-yl)-2-cyanopenta-2,4-dienamide] are “inhibition of the SCOVE3 ovarian cancer cell growth” and “lack of cell survival”.
Compound `N#C/C(=C\C=C\c1cccc(Br)n1)C(=O)N[C@H](c1ccccc1)C1CC1` [Example 7, (2E,4E)-5-(6-bromopyridin-2-yl)-2-cyano-N-[(S)-cyclopropyl(phenyl)methyl]penta-2,4-dienamide] displayed an IC50 in assay [1] of 5.4 µM.
With `CCC[C@H](NC(=O)/C(C#N)=C/C=C/c1cccc(Br)n1)c1ccccc1` [Example 9, (2E,4E)-5-(6-bromopyridin-2-yl)-2-cyano-N-[(1S)-1-phenylbutyl]penta-2,4-dienamide], the “inhibition of IL-2 phosphorylation of STAT-3” value in the assay with STAT-3 was “constitutively inhibiting the IL-2 phosphorylation of STAT-3”.
